# Reference: ChEMBL document CHEMBL5380786, “Selective Covalent Targeting of Pyruvate Kinase M2 Using Arsenous Warheads” (J Med Chem, 2023)
# Activity calls are given as the source filed them. The calls are words filed in the database; no cut-off is given here.
# Key:
# Pyruvate kinase PKM [1] = biological target: T1, Pyruvate kinase PKM (Homo sapiens, UniProt P14618); assay: Inhibition of human PKM2 assessed as ATP production incubated for 10 mins by Celltiter-glo luminescent analysis
# Target sequence in this assay (P14618 whole entry): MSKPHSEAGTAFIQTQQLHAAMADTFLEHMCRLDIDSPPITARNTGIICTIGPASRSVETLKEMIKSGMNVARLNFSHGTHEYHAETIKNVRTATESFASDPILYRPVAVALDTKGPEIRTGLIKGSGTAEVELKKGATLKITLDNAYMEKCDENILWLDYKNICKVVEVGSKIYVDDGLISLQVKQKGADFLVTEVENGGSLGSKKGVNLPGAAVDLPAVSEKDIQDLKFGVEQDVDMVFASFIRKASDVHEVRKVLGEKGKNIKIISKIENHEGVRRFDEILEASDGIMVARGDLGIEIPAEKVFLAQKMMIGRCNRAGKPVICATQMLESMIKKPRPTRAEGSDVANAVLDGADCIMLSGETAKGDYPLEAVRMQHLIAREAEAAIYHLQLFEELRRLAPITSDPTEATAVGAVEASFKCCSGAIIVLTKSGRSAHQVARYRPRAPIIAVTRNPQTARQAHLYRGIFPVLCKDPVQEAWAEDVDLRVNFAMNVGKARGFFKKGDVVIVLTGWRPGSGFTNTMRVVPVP
# Pyruvate kinase PKM [2] = biological target: T1, Pyruvate kinase PKM; assay: Inhibition of human PKM2 assessed as ATP production incubated for 10 mins in presence of beta-mercaptoethanol by Celltiter-glo luminescent analysis
# Target sequence in this assay (P14618 whole entry): as above
# PA-1 [3] = assay: Antiproliferative activity against human PA-1 cells assessed as reduction in cell viability incubated for 72 hrs by Cell-TiterGlo assay; type: functional, cell-based; settings: PA-1, 72 h
# A2780 = assay: Antiproliferative activity against human A2780 cells assessed as reduction in cell viability incubated for 72 hrs by Cell-TiterGlo assay; type: functional, cell-based; settings: A2780, 72 h
# SK-OV-3 [4] = assay: Antiproliferative activity against human SK-OV-3 cells assessed as reduction in cell viability incubated for 72 hrs by Cell-TiterGlo assay; type: functional, cell-based; settings: SK-OV-3, 72 h
# Pyruvate kinase PKM [5] = biological target: T1, Pyruvate kinase PKM; assay: Binding affinity to PKM2 in human PA-1 cells at 10 uM pretreated for 6 hrs followed by pulldown using streptavidin agarose resin by Western blot analysis; type: cell-based
# Target sequence in this assay (P14618 2-531 limits assumed): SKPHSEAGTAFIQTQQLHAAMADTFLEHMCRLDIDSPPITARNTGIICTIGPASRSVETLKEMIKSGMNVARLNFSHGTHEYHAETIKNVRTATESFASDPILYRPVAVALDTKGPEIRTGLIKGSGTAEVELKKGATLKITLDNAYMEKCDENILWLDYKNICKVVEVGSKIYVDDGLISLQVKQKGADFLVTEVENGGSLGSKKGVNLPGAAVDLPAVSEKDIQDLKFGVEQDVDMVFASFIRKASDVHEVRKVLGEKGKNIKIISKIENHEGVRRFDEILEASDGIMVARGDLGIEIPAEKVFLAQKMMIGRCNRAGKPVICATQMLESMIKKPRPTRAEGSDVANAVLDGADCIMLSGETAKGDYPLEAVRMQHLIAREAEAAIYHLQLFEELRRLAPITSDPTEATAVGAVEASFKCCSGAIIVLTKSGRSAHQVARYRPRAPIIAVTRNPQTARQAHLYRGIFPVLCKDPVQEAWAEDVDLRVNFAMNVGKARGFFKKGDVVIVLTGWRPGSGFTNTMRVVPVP
# Pyruvate kinase PKM [6] = biological target: T1, Pyruvate kinase PKM; assay: Binding affinity to PKM2 in human SK-OV-3 cells at 10 uM pretreated for 6 hrs followed by pulldown using streptavidin agarose resin by Western blot analysis; type: cell-based
# Target sequence in this assay (P14618 2-531 limits assumed): as above
# Pyruvate kinase PKM [7] = biological target: T1, Pyruvate kinase PKM; assay: Inhibition of human PKM1 assessed as ATP production incubated for 10 mins by Celltiter-glo luminescent analysis
# Target sequence in this assay (P14618 whole entry): as the sequence (P14618 whole entry) above
# Pyruvate kinase PKM [8] = biological target: T1, Pyruvate kinase PKM; assay: Binding affinity to PKM2 in human PA-1 cells assessed as thermal stabilization at 2 uM measured for 6 hrs by cellular thermal shift assay; type: cell-based
# Target sequence in this assay (P14618 2-531 limits assumed): as the sequence (P14618 2-531 limits assumed) above
# Pyruvate kinase PKM [9] = biological target: T1, Pyruvate kinase PKM; assay: Binding affinity to PKM2 in human SK-OV-3 cells assessed as thermal stabilization at 2 uM measured for 6 hrs by cellular thermal shift assay; type: cell-based
# Target sequence in this assay (P14618 2-531 limits assumed): as above
# Pyruvate kinase PKM [10] = biological target: T1, Pyruvate kinase PKM; assay: Binding affinity to wild type FLAG-tagged PKM2 in human PA-1 cells measured for 72 hrs; type: cell-based
# Target sequence in this assay (P14618 whole entry): as the sequence (P14618 whole entry) above
# Pyruvate kinase PKM [11] = biological target: Pyruvate kinase PKM (Homo sapiens, UniProt P14618, C474A); assay: Binding affinity to PKM2 C474A mutant in human PA-1 cells measured for 72 hrs; type: cell-based
# Pyruvate kinase PKM [12] = biological target: Pyruvate kinase PKM (Homo sapiens, UniProt P14618, C474S); assay: Binding affinity to PKM2 C474S mutant in human PA-1 cells measured for 72 hrs; type: cell-based
# Pyruvate kinase PKM [13] = biological target: T1, Pyruvate kinase PKM; assay: Binding affinity to PKM2 in human PA-1 cells assessed as target engagement of protein at 10 uM silver staining based […] gel electrophoresis analysis; type: cell-based
# Target sequence in this assay (P14618 2-531 limits assumed): as the sequence (P14618 2-531 limits assumed) above
# Pyruvate kinase PKM [14] = biological target: T1, Pyruvate kinase PKM; assay: Binding affinity to human PKM1 in HEK-293T by measuring pulldown using streptavidin agarose resin preincubated for 18 hrs followed by streptavidin pulldown for 18 hrs by silver staining based immunoblotting analysis; type: cell-based; settings: time 36.0 hrs
# Target sequence in this assay (P14618 2-531 limits assumed): as above
# Pyruvate kinase PKM [15] = biological target: T1, Pyruvate kinase PKM; assay: Binding affinity to PKM2 in human HeLa cells assessed as nuclear translocation at 0.5 uM measured for 24 hrs by DAPI staining based immunofluorescence analysis; type: cell-based
# Pyruvate kinase PKM [16] = biological target: T1, Pyruvate kinase PKM; assay: Binding affinity to human PKM2 in HEK-293T by measuring pulldown using streptavidin agarose resin preincubated for 18 hrs followed by streptavidin pulldown for 18 hrs by silver staining based immunoblotting analysis; type: cell-based; settings: time 36.0 hrs
# PA-1 [17] = assay: Antiproliferative activity against human PKM2 knockdown PA-1 cells assessed as reduction in cell viability incubated after 96 hrs by Cell-TiterGlo assay; type: functional, cell-based
# SK-OV-3 [18] = assay: Antiproliferative activity against human PKM2 knockdown SK-OV-3 cells assessed as reduction in cell viability incubated after 96 hrs by Cell-TiterGlo assay; type: functional, cell-based
# HEY [19] = assay: Antitumor activity against human HEY cells xenografted in BALB/c nude mouse model assessed as reduction of tumor burden at 50 mg/kg, po qd; type: functional, organism-based
# HEY [20] = assay: Antitumor activity against human HEY cells xenografted in BALB/c nude mouse model assessed as reduction in total tumor weight by measuring fold change at 50 mg/kg, po qd; type: functional
# HEY [21] = assay: Antitumor activity against human HEY cells xenografted in BALB/c nude mouse model assessed as reduction average tumor volume by measuring fold change at 50 mg/kg, po qd by caliper analysis; type: functional
# [22] = Toxicity in BALB/c mouse assessed as change in body weight at 50 mg/kg, po qd measured after 2 weeks; type: organism-based; settings: in vivo, 336 h
# [23] = Toxicity in BALB/c mouse assessed as adverse effects at 50 mg/kg, po qd measured after 2 weeks; type: organism-based; settings: in vivo, 336 h
# Pyruvate kinase PKM [24] = biological target: T1, Pyruvate kinase PKM; assay: Inhibition of PKM2 in human PA-1 cells assessed as increase in extracellular acidification rate at 1 to 5 uM measured for 12 hrs by Seahorse XF96 extracellular flux analyzer; type: cell-based; settings: dose 1-5 µM
# Pyruvate kinase PKM [25] = biological target: T1, Pyruvate kinase PKM; assay: Inhibition of PKM2 in human SK-OV-3 cells assessed as decrease in extracellular acidification rate at 5 uM measured for 12 hrs by Seahorse XF96 extracellular flux analyzer; type: cell-based
# Pyruvate kinase PKM [26] = biological target: T1, Pyruvate kinase PKM; assay: Inhibition of PKM2 in human PA-1 cells assessed as reduction pyruvate level at 5 uM measured for 12 hrs by LC-MS analysis; type: cell-based
# Pyruvate kinase PKM [27] = biological target: T1, Pyruvate kinase PKM; assay: Inhibition of PKM2 in human PA-1 cells assessed as increase in ADP/ATP ratio at 5 uM measured for 12 hrs by LC-MS analysis; type: cell-based
# Pyruvate kinase PKM [28] = biological target: T1, Pyruvate kinase PKM; assay: Inhibition of PKM2 in human PA-1 cells assessed as reduction in LDH level at 5 uM measured after 3 hrs by Western blot analysis; type: cell-based
# Pyruvate kinase PKM [29] = biological target: T1, Pyruvate kinase PKM; assay: Inhibition of PKM2 in human PA-1 cells assessed as reduction in c-MYC phosphorylation level at 3 uM incubated for 6 to 12 hrs by Western blotting analysis; type: cell-based; settings: time 6-12 hrs
# Pyruvate kinase PKM [30] = biological target: T1, Pyruvate kinase PKM; assay: Inhibition of PKM2 in human PA-1 cells assessed as reduction in cyclin D1 phosphorylation level at 3 uM incubated for 6 to 12 hrs by Western blotting analysis; type: cell-based; settings: time 6-12 hrs
# Pyruvate kinase PKM [31] = biological target: T1, Pyruvate kinase PKM; assay: Inhibition of PKM2 in human PA-1 cells assessed as effect on STAT3 phosphorylation level at 3 uM incubated for 6 to 12 hrs by Western blotting analysis; type: cell-based; settings: time 6-12 hrs
# Pyruvate kinase PKM [32] = biological target: T1, Pyruvate kinase PKM; assay: Inhibition of PKM2 in human PA-1 cells assessed as effect on AKT phosphorylation level at 3 uM incubated for 6 to 12 hrs by Western blotting analysis; type: cell-based; settings: time 6-12 hrs
# Pyruvate kinase PKM [33] = biological target: T1, Pyruvate kinase PKM; assay: Inhibition of PKM2 in human PA-1 cells assessed as effect on ERK1/2 phosphorylation level at 3 uM incubated for 6 to 12 hrs by Western blotting analysis; type: cell-based; settings: time 6-12 hrs
# SK-OV-3 [34] = assay: Inhibition of PKM2 knockdown in human SK-OV-3 cells assessed as AMPK phosphorylation level at 3 uM incubated for 6 to 12 hrs by Western blotting analysis; type: functional, cell-based; settings: time 6-12 hrs
# SK-OV-3 [35] = assay: Inhibition of PKM2 knockdown in human SK-OV-3 cells assessed as c-MYC phosphorylation level at 3 uM incubated for 6 to 12 hrs by Western blotting analysis; type: functional, cell-based; settings: time 6-12 hrs
# Chain of Pyruvate kinase PKM (Homo sapiens, UniProt P14618, C474A) (P14618 2-531 C474A limits assumed): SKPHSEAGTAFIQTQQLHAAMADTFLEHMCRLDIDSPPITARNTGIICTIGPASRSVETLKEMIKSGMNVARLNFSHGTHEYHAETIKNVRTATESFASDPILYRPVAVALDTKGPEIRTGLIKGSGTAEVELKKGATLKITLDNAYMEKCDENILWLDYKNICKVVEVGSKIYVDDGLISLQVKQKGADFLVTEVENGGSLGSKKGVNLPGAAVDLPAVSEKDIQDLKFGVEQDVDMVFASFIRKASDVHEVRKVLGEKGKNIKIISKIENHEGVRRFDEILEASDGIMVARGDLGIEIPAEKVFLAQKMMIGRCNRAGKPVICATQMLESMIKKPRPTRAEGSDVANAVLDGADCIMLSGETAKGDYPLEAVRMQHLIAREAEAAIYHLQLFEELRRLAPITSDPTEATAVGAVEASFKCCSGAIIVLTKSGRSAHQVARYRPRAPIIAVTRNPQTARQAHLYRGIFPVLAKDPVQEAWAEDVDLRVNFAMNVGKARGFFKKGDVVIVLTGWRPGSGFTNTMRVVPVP
# Chain of Pyruvate kinase PKM (Homo sapiens, UniProt P14618, C474S) (P14618 2-531 C474S limits assumed): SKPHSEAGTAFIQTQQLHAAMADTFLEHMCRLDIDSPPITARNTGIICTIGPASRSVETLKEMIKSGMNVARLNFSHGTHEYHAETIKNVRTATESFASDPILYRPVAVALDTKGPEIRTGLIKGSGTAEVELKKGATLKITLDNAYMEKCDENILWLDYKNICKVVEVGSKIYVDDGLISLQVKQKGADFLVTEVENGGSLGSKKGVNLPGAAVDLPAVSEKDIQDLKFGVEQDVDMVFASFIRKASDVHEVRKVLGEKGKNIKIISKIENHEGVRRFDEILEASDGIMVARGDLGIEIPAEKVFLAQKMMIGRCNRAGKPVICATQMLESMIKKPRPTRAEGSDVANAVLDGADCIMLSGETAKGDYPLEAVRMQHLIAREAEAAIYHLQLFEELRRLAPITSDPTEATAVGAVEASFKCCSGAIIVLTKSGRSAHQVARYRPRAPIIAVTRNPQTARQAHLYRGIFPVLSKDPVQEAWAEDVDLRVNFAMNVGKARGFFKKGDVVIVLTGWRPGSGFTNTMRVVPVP
compound,measurement,setting,value
CCN1CCC(CN(C(=O)[C@@H]2CCN(Cc3ccccc3)C2)c2ccc([As](O)O)cc2)CC1,IC50,Pyruvate kinase PKM [1],122 nM
same,IC50,Pyruvate kinase PKM [2],250 nM
same,IC50,PA-1 [3],> 10000 nM
same,IC50,A2780,> 10000 nM
same,IC50,SK-OV-3 [4],> 10000 nM
same,Activity,Pyruvate kinase PKM [5],Active
same,Activity,Pyruvate kinase PKM [6],Active
CC(C)=CC[C@@H](O)C1=CC(=O)c2c(O)ccc(O)c2C1=O [SHIKONIN],IC50,Pyruvate kinase PKM [1],2580 nM
same,IC50,Pyruvate kinase PKM [2],> 10000 nM
same,IC50,Pyruvate kinase PKM [7],1520 nM
same,IC50,PA-1 [3],920 nM
same,IC50,A2780,390 nM
same,IC50,SK-OV-3 [4],3460 nM
same,Activity,Pyruvate kinase PKM [8],inactive
same,Activity,Pyruvate kinase PKM [9],inactive
same,Activity,Pyruvate kinase PKM [5],Active
same,Activity,Pyruvate kinase PKM [6],Active
same,IC50,Pyruvate kinase PKM [10],301 nM
same,IC50,Pyruvate kinase PKM [11],381 nM
same,IC50,Pyruvate kinase PKM [12],326 nM
O=C([C@@H]1CCN(Cc2ccccc2)C1)N(Cc1ccccc1)c1ccc([As](O)O)cc1,IC50,Pyruvate kinase PKM [1],326 nM
same,IC50,Pyruvate kinase PKM [2],1490 nM
O=C(CCCC[C@H]1SC[C@H]2NC(=O)N[C@H]21)NCCOCCOCCOCCOCC(=O)Nc1ccc([As](O)O)cc1,IC50,Pyruvate kinase PKM [1],230 nM
same,IC50,Pyruvate kinase PKM [2],1030 nM
same,Activity,Pyruvate kinase PKM [13],Active
O=C(CCCC[C@H]1SC[C@H]2NC(=O)N[C@H]21)NCCOCCOCCOCCN1CCC(CN(C(=O)[C@@H]2CCN(Cc3ccccc3)C2)c2ccc([As]3SCCS3)cc2)CC1,Activity,Pyruvate kinase PKM [14],inactive
same,Activity,Pyruvate kinase PKM [5],inactive
same,Activity,Pyruvate kinase PKM [6],inactive
CCN1CCC(CN(C(=O)[C@@H]2CCN(Cc3ccccc3)C2)c2ccc(B(O)O)cc2)CC1,IC50,Pyruvate kinase PKM [1],> 10000 nM
same,IC50,Pyruvate kinase PKM [2],> 10000 nM
same,IC50,PA-1 [3],> 10000 nM
same,IC50,A2780,> 10000 nM
same,IC50,SK-OV-3 [4],> 10000 nM
O=C(CCCC[C@H]1SC[C@H]2NC(=O)N[C@H]21)NCCOCCOCCOCCOCC(=O)Nc1ccc(B(O)O)cc1,IC50,Pyruvate kinase PKM [1],> 10000 nM
same,IC50,Pyruvate kinase PKM [2],> 10000 nM
CCN1CCC(CN(C(=O)[C@H]2CCN(Cc3ccccc3)C2)c2ccc([As]3SCCS3)cc2)CC1,IC50,PA-1 [3],100 nM
same,IC50,A2780,110 nM
same,IC50,SK-OV-3 [4],130 nM
CN1CC[C@@H](C(=O)N(Cc2ccccc2)c2ccc([As](O)O)cc2)C1,IC50,Pyruvate kinase PKM [1],285 nM
same,IC50,Pyruvate kinase PKM [2],1790 nM
CC1=CC(C)=[N+]2C1=C(CCCC(=O)N1CCC(CN(C(=O)[C@@H]3CCN(Cc4ccccc4)C3)c3ccc([As]4SCCS4)cc3)CC1)c1c(C)cc(C)n1[B-]2(F)F,Activity,Pyruvate kinase PKM [15],Active
COc1ccc([As](O)O)cc1NC(=O)COCCOCCOCCOCCNC(=O)CCCC[C@H]1SC[C@H]2NC(=O)N[C@H]21,IC50,Pyruvate kinase PKM [1],999 nM
same,IC50,Pyruvate kinase PKM [2],1280 nM
O=C(CCCC[C@H]1SC[C@H]2NC(=O)N[C@H]21)NCCOCCOCCOCCN1CCC(CN(C(=O)[C@@H]2CCN(Cc3ccccc3)C2)c2ccc([As](O)O)cc2)CC1,Activity,Pyruvate kinase PKM [14],inactive
same,Activity,Pyruvate kinase PKM [16],Active
CCN1CCC(CN(C(=O)[C@@H]2CCN(Cc3ccccc3)C2)c2ccc([As]3SCCS3)cc2)CC1,IC50,Pyruvate kinase PKM [1],> 10000 nM
same,IC50,Pyruvate kinase PKM [2],> 10000 nM
same,IC50,PA-1 [3],160 nM
same,IC50,A2780,230 nM
same,IC50,SK-OV-3 [4],> 10000 nM
same,Activity,PA-1 [17],inactive
same,Activity,SK-OV-3 [18],Active
same,Activity,Pyruvate kinase PKM [8],inactive
same,Activity,Pyruvate kinase PKM [9],inactive
same,Activity,HEY [19],Active
same,fold change (FC),HEY [20],>3
same,fold change (FC),HEY [21],2
same,Activity,[22],Non-Toxic
same,Activity,[23],Non-Toxic
same,IC50,Pyruvate kinase PKM [10],16 nM
same,IC50,Pyruvate kinase PKM [11],129 nM
same,IC50,Pyruvate kinase PKM [12],93 nM
same,inhibition,Pyruvate kinase PKM [24],inactive
same,inhibition,Pyruvate kinase PKM [25],Active
same,inhibition,Pyruvate kinase PKM [26],Active
same,inhibition,Pyruvate kinase PKM [27],Active
same,inhibition,Pyruvate kinase PKM [28],inactive
same,inhibition,Pyruvate kinase PKM [29],Active
same,inhibition,Pyruvate kinase PKM [30],Active
same,inhibition,Pyruvate kinase PKM [31],inactive
same,inhibition,Pyruvate kinase PKM [32],inactive
same,inhibition,Pyruvate kinase PKM [33],inactive
same,inhibition,SK-OV-3 [34],Active
same,inhibition,SK-OV-3 [35],inactive
CN1CC[C@@H](C(=O)Nc2ccc([As](O)O)cc2)C1,IC50,Pyruvate kinase PKM [1],139 nM
same,IC50,Pyruvate kinase PKM [2],586 nM
same,IC50,PA-1 [3],480 nM
same,IC50,A2780,340 nM
same,IC50,SK-OV-3 [4],280 nM
CCN1CCC(CN(C(=O)[C@H]2CCN(Cc3ccccc3)C2)c2ccc([As](O)O)cc2)CC1,IC50,Pyruvate kinase PKM [1],671 nM
same,IC50,Pyruvate kinase PKM [2],2140 nM
O=C(CCCC[C@H]1SC[C@H]2NC(=O)N[C@H]21)NCCOCCOCCOCCOCC(=O)Nc1ccc([As]2SCCS2)cc1,Activity,Pyruvate kinase PKM [13],inactive
